The results in this text go back to ChEMBL document CHEMBL1201862, “PubChem BioAssay data set” (2004).

The source made the active and inactive calls.

Assay [1] deals with T1, Caspase-3 (Homo sapiens, UniProt P42574).
T1 sequence (P42574 whole entry): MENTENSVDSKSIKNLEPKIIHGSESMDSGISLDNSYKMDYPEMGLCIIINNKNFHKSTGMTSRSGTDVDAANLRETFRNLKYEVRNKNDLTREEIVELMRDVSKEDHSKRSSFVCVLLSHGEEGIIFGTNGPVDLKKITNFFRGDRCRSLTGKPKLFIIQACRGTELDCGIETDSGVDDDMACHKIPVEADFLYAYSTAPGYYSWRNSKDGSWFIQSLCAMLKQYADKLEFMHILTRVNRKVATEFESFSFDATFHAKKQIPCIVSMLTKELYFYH
Type of assay: functional.

Assay [2] has as its target T2, Sentrin-specific protease 7 (Homo sapiens, UniProt Q9BQF6).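 Further: Luminescence-based dose-response confirmation of ultra-high-throughput screening hits, measuring inhibition of SENP7.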
T2 sequence (Q9BQF6 whole entry): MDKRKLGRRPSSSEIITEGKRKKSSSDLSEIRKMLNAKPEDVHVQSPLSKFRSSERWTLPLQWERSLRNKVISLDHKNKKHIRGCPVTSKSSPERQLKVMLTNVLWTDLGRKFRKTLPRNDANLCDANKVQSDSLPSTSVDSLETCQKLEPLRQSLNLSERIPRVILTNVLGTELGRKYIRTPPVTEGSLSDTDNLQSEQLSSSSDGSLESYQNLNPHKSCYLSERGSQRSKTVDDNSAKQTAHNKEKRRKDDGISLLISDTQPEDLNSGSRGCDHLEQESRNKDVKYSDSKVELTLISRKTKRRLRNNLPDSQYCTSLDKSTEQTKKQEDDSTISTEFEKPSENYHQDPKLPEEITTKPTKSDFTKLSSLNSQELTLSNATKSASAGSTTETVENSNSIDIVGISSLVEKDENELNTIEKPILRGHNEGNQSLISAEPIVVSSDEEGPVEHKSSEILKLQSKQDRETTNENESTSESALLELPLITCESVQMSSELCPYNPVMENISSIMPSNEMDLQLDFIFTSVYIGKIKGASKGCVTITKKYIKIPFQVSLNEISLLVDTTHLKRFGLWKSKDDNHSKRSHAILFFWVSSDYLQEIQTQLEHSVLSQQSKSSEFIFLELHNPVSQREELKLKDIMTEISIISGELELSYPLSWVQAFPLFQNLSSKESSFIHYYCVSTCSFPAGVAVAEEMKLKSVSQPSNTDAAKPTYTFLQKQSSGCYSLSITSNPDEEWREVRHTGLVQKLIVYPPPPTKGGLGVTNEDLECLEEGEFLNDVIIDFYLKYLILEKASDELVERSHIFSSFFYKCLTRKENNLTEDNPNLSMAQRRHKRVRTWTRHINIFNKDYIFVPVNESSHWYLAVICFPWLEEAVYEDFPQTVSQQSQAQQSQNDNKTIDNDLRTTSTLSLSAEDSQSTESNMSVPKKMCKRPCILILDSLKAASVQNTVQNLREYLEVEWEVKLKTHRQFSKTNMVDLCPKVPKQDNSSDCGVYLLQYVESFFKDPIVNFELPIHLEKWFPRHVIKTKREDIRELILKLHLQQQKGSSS
Type of assay: functional.

Assay [3] concerns the target T3, Sentrin-specific protease 6 (Homo sapiens, UniProt Q9GZR1).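 Further: Luminescence-based dose-response confirmatory assay of SENP6 inhibition, following up an ultra-high-throughput screen.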
T3 sequence (Q9GZR1 whole entry): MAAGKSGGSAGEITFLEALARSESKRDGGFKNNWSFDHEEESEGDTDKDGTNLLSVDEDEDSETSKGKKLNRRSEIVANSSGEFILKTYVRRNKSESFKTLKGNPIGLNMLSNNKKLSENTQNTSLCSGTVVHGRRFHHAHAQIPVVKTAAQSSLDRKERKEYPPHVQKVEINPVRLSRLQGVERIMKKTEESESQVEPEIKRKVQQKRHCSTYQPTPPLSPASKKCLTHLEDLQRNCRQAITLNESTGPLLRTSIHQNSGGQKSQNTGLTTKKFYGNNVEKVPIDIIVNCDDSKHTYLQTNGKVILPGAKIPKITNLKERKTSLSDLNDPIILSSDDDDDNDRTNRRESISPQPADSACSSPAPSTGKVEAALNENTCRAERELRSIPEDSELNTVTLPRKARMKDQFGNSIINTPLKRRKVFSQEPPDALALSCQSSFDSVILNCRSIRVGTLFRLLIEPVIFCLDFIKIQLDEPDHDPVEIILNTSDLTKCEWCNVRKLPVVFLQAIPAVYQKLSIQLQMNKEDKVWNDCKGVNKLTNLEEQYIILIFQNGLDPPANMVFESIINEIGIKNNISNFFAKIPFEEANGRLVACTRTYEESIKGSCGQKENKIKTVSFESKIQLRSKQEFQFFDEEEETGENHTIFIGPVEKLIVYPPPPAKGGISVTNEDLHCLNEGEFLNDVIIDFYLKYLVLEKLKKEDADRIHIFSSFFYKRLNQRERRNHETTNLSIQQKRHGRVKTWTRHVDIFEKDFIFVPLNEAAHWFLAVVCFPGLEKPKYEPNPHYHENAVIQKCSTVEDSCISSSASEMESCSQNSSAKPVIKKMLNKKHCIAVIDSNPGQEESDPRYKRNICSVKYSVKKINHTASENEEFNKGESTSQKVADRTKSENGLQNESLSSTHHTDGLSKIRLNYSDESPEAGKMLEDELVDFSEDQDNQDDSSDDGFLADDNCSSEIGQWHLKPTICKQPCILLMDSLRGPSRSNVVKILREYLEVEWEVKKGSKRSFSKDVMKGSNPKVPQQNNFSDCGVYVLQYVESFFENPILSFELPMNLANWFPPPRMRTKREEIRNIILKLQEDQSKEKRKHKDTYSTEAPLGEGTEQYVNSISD
In kind it is functional.

Assay [4] has as its target T4, Sentrin-specific protease 8 (Homo sapiens, UniProt Q96LD8).
T4 sequence (Q96LD8 whole entry): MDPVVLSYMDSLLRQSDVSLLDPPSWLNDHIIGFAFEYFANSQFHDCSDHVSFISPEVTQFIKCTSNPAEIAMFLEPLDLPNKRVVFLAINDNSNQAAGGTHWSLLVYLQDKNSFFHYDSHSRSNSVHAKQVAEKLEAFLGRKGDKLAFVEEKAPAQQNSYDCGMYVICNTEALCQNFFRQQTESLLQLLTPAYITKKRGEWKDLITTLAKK
Type of assay: functional.

Assay [5] is described as follows: microbe, parasite or virus in culture. In kind it is functional. Conditions: Mycobacterium tuberculosis.
Assay [6] can be described thus: Luminescence Cell-Based Dose Retest to Confirm Inhibitors of Cancer Stem Cells. [Related pubchem assays (depositor defined):AID2717, AID2721]. In kind it is functional. Conditions: Homo sapiens.
Assay [7] in a line: Shn3 3'UTR reporter inhibitors, dose response, cell-based, Clone20 osteoblasts, firefly luciferase, cherry-picked (AID 624132).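 Further: firefly luciferase luminescence from reporter carrying the Shn3 3'UTR in osteoblasts.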 Type of assay: functional.
The nature of assay [8]: HepG2 cell cytotoxicity, dose response, cytotoxicity control for Shn3 inhibitor project, CellTiter-Glo, cherry-picked (AID 624134). Type of assay: functional, cell-based.
Assay [9] can be described thus: control 3'UTR Renilla luciferase suppression, dose response, counter-screen for Shn3 inhibitor project, cell-based, Clone20-Shn3RL, cherry-picked (AID 624133). In kind it is functional. (A counterscreen serves to expose hits that act by an unwanted route or on another target.)
Assay [10] in a line: A Cell Based Secondary Assay To Explore Cytotoxicity of Compounds that Sensitize Mycobacterium Tuberculosis to Beta-Lactam Antibiotics. In kind it is functional.
A short description of assay [11]: growth suppression of PTEN-null colon cells, dose response, cell-based, HCT116 PTEN knockout (AID 1047).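 Further: HCT116 colon tumor cells with PTEN knocked out; cells exposed to compound for 60 hours before readout; potency for loss of cell viability measured by luminescence.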 Type of assay: functional.
Assay [12] in a line: growth suppression of beta-catenin-knockout colon cells, dose response, cell-based, HCT116, human colon tumor (AID 1045).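 Further: HCT116 colon tumor cells with beta catenin knocked out; cells exposed to compound for 60 hours.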 In kind it is functional.
Assay [13] in a line: inhibitors of HIV Env-driven cell fusion, dose response, cherry-pick (AID 652057). Type of assay: functional, cell-based.
A short description of assay [14]: ZM109 Env clade C HIV-1 fusion inhibitors, dose response, HeLa effector, CEM target cells, luciferase, cherry-pick (AID 652058). In kind it is functional, cell-based.
The nature of assay [15]: off-target signal loss in HeLa-CEM21 co-culture – HeLa F-luc CTL cells, cherry-picked, counter-screen for HIV-1 Env fusion inhibitor project, dose response (AID 652040).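 Further: potency for signal decrease marking cytotoxic or nonspecific inhibition.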 In kind it is functional, cell-based.
The nature of assay [16]: inhibitors of clade B AD8 Env fusion, dose response, cell-based, cherry-pick (AID 652062).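 Further: luciferase signal from cell-cell fusion driven by HIV-1 clade B AD8 Env; potency is for inhibitors of fusion seen as a drop in luminescence.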 Type of assay: functional.
Assay [17] concerns the target FAD-linked sulfhydryl oxidase ALR (Homo sapiens, UniProt P55789). The assay can be described thus: inhibitors of human ALR sulfhydryl oxidase, dose response, biochemical, H2O2 detection, luminescence, cherry-pick (AID 493248).
In assay [18] the target is T4, Sentrin-specific protease 8. In kind it is functional. The source holds these as a separate data set.
The target is the same in assay [19]. In kind it is functional. The source holds these as a separate data set.
In assay [20] the target is Paired box protein Pax-8 (Homo sapiens, UniProt Q06710). The assay can be described thus: inhibitors of PAX8-driven TPO luciferase reporter, dose response, RMG-I cells, cherry-pick (AID 687027).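 Further: luciferase reporter driven by Pax8 target thyroperoxidase promoter measured by SteadyGlo luminescence.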 In kind it is functional, cell-based. On the technique in general: In a reporter assay the amount or activity of a reporter protein is the signal.
The nature of assay [21]: NIH:OVCAR-3 ovarian cancer cell cytotoxicity, dose response, PAX8 inhibitor project, plate reader, dry powder samples (AID 743044). Type of assay: functional, cell-based.
Assay [22] in a line: cytotoxicity in OVCAR8 ovarian cancer cells, dose response, PAX8 project, cell-based, plate reader, dry powder samples (AID 743197). Type of assay: functional. Conditions: OVCAR-8.

Paired box protein Pax-8, sequence (Q06710 whole entry): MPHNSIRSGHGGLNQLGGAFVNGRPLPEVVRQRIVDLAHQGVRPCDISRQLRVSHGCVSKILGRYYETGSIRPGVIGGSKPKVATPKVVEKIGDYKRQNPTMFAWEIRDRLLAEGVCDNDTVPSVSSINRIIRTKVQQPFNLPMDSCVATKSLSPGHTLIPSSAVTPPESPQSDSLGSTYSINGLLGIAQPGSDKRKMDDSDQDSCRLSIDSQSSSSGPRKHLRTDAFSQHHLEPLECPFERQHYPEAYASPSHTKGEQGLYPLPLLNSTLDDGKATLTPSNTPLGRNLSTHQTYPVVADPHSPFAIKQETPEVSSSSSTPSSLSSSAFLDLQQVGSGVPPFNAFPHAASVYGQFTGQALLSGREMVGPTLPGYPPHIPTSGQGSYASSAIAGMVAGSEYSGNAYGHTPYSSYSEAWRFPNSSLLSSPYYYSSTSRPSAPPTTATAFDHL
FAD-linked sulfhydryl oxidase ALR, sequence (P55789 whole entry): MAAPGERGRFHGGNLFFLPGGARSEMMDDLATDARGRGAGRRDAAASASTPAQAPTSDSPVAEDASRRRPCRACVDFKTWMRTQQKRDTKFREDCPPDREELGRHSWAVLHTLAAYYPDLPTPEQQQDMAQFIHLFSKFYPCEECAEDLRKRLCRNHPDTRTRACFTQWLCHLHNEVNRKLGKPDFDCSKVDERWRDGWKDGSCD

Take `COC(=O)c1ccc(-c2ccc(F)cc2)nc1C`: the IC50 (usually the concentration at which inhibition is half-maximal) in assay [1] was 13.2 µM (active); in assay [2], 8.25 µM (active); in [3] it was 31.9 µM (active); in [4], 64.9 µM (active).

Consider `CCOc1cc2c(cc1OCC)-n1cccc1C(c1ccc(C(C)C)cc1)NC2` (centres undefined), for which the CC50 in assay [5] is > 40 µM (active). Also, the AC50 – broadly, the concentration giving half of the maximal activity seen – was 11.4 µM (active) in assay [6], 7.22 µM (active) in assay [7], 67.7 µM (active) in assay [8] and 4.99 µM (active) in assay [9].

`Cc1ccc(C(=O)c2sc3c(c2N)c(=O)[nH]c(=O)n3CCc2ccccc2)cc1`: the CC50 in assay [10] was 25.1 µM (active). Also, the EC50 – broadly, the concentration that produces a half-maximal response – in assay [11] is 10.7 µM (active); in assay [12], 9.5 µM (active).

On to `CCOC(=O)C1(Cc2ccc(Cl)cc2)CCN(C(C)Cc2ccc(O)c(OC)c2)CC1` (centres undefined), for which the results for the half-maximal activity concentration (AC50) in assay [7], in assay [8] and in assay [9] were 1.33 µM (active), 17.6 µM (active) and 2.65 µM (active), respectively.

Take `COc1ccccc1N1CCN(S(=O)(=O)c2ccc3[nH]c(-c4ccccc4)nc3c2)CC1`: in assay [10], the CC50 was > 40 µM (active).

With `CN(c1ccccc1)S(=O)(=O)c1ccc(Cl)c(C(=O)Nc2nc3ccccc3[nH]2)c1`, the AC50 is 3.18 µM (active) in assay [13], 1.6 µM (active) in assay [14], 5.75 µM (active) in assay [15] and 5.66 µM (active) in [16].

Regarding `COc1cccc(C(=O)NC(=S)Nc2ccc(N(C)C)cc2)c1`, the IC50 was 10.7 µM (active) in [1], 6.14 µM (active) in assay [2], 16.1 µM (active) in assay [3] and 21 µM (active) in [4].

For the compound `COc1ccc(/C=C2/CCCC(C(=O)C(F)(F)F)=C2O)cc1OC`, in assay [10], the CC50 was > 40 µM (active).

As to `CN(C)c1ccc(NC(=O)Oc2ccccc2)cc1`, the AC50 in [17] is 1.88 µM (active). The IC50 in [18] is > 100 µM (inactive); in assay [19], 78.1 µM (inactive).

Regarding `O=C(Nc1ccc(S(=O)(=O)N2CCCCC2)cc1)C1CCCN(C(=O)c2ccc(Cl)cc2)C1` (centres undefined), the CC50 in assay [10] was > 40 µM (active).

On to `COc1ccc(C(C(=O)NC(C)(C)C)N(CCC(C)C)C(=O)CCC(=O)Nc2cc(C)on2)cc1` (centres undefined), for which the AC50 in assay [13] was 7.02 µM (active); in [14], 18.1 µM (active); in assay [15], 16.6 µM (active); in assay [16], 22.8 µM (active).

Take `CC(C)(C)NCCCOc1ccc(Cl)cc1C(C)(C)C`: the CC50 in assay [10] is 39.3 µM (active).

Turning to `COC(=O)[C@@]1(C)[C@H]2C(=O)N(Cc3ccccc3)C(=O)[C@H]2[C@H]2CN=C(SCc3ccc(C#N)cc3)N21`, the AC50 in [13] was 0.566 µM (active); in assay [14], 0.785 µM (active); in assay [15], 1.09 µM (active); in [16] it was 0.609 µM (active).

In the case of `CCOc1ccccc1Nc1cc(C)nc2ccccc12`, the AC50 in [7] is 8.14 µM (active); in [8], 48.6 µM (active); in assay [9], 5.31 µM (active).

As for `C[C@H](CO)N1C[C@H](C)[C@H](CN(C)C(=O)c2ccncc2)OCc2ccccc2-c2c(n(C)c3ccccc23)C1=O`, the AC50 in [13] was 9.94 µM (active); in [14] it was 4.23 µM (active); in assay [16] it was 33.1 µM (active).

With `O=C(Nc1ccc(F)cc1)N1CC(=O)N2[C@@H](CO)[C@@H](c3ccc(C#Cc4ccc(F)cc4)cc3)[C@@H]2C1`, the concentration at half-maximal activity (AC50) in assay [20] is 10.4 µM (active); in [21] it was 16.2 µM (active); in assay [22], > 70 µM (inactive).

For `C[C@H]1CN([C@@H](C)CO)C(=O)c2c(c3ccccc3n2C)-c2ccccc2CO[C@@H]1CN(C)S(=O)(=O)c1ccsc1`, the figures for the AC50 in [20] and in assay [21] were 3.6 µM (active) and 51.1 µM (active), respectively.
